IC50 data for 26 molecules are collected here from patent publication US20260317320A1, “C5AR1 ANTAGONISTS AND USES THEREOF” (Vanqua Bio, Inc., priority 2022, published 2026).

The term IC50 denotes the midpoint of a concentration-inhibition curve.

In this test the target is T1, complement C5a receptor 1 (C5aR1) (Homo sapiens, UniProt P21730).
T1 construct: β-galactosidase fragment (PathHunter enzyme complementation); host or cells: CHO-K1 (PathHunter CHO-K1 C5aR1 β-arrestin cell line)
T1 sequence (P21730 1-350): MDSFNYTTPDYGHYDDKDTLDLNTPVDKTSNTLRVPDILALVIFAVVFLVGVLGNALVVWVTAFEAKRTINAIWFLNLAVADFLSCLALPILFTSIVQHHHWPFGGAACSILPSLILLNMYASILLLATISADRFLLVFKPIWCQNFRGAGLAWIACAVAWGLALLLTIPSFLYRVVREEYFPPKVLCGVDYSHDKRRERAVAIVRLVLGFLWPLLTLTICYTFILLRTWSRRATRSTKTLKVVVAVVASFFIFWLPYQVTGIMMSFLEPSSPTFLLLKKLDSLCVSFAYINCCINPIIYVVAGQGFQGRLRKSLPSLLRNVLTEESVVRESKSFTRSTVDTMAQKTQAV
As to the kind of experiment: β-arrestin recruitment via C5aR1 activation in live CHO-K1 cells (PathHunter), antagonist mode. Format: cell-based. The conditions noted are these: antagonist mode; recombinant hC5a (EC90) as competing natural agonist; live CHO-K1 cells; read-out: [Antagonist] B-arrestin2 recruitment: Average IC50. How it is done: Exemplary compounds were evaluated for classical GPCR β-arrestin recruitment via complement C5a receptor 1 (C5aR1) activation in live CHO-K1 cells. This cell line expresses two fragments of the […] protein coupled to β-arrestin and C5aR1. Complementation of the two fragments allows for the assessment of both C5aR1 agonism and antagonism. Recombinant hC5a (EC90) was used as the competing natural agonist against disclosed compounds (more information on the expanded protocol and cell line can be found on the manufacturer's website: PathHunter® CHO-K1 C5aR1 β-arrestin cell line, DiscoverX, Catalog No. 93-0557C2). […] IC50 ranges: A: IC50≤500 nM; B: 500 nM<IC50≤5 uM; C: 5 uM<IC50≤100 uM; D: IC50>100 uM.
(Recruitment of arrestin is a read-out of receptor activation apart from second messengers.)

Take `Cc1cnc2cc([C@H]3CC[C@@H](c4c(C)cccc4F)CC3)c(=O)n(Cc3nccnc3C(F)(F)F)c2n1` [99a, 7-(cis-4-(2-Fluoro-6-methylphenyl)cyclohexyl)-3-methyl-5-((3-(trifluoromethyl)pyrazin-2-yl)methyl)pyrido[2,3-b]pyrazin-6(5H)-one]: the IC50 is 500 to 5000 nM.
As to `Cc1cnc2cc([C@H]3CC[C@H](c4c(C)cccc4F)CC3)c(=O)n(Cc3nccnc3C(F)(F)F)c2n1` [99b, 7-(trans-4-(2-Fluoro-6-methylphenyl)cyclohexyl)-3-methyl-5-((3-(trifluoromethyl)pyrazin-2-yl)methyl)pyrido[2,3-b]pyrazin-6(5H)-one], the half-maximal inhibitory concentration (IC50) is less than 500 nM.
In the case of `Cc1cnc2cc([C@H]3CC[C@H](c4c(C)cccc4F)CC3)c(=O)n(Cc3ncccc3C(F)(F)F)c2n1` [121a, 7-(trans-4-(2-Fluoro-6-methylphenyl)cyclohexyl)-3-methyl-5-((3-(trifluoromethyl)pyridin-2-yl)methyl)pyrido[2,3-b]pyrazin-6(5H)-one], the IC50 is less than 500 nM.
Turning to `Cc1cnc2cc([C@H]3CC[C@@H](c4c(C)cccc4F)CC3)c(=O)n(Cc3ncccc3C(F)(F)F)c2n1` [121b, 7-(cis-4-(2-Fluoro-6-methylphenyl)cyclohexyl)-3-methyl-5-((3-(trifluoromethyl)pyridin-2-yl)methyl)pyrido[2,3-b]pyrazin-6(5H)-one], the 50% inhibitory concentration (IC50) lay in the range of 500 to 5000 nM.
With `Cc1cccc(F)c1N1CCC(c2cc3nccnc3n(Cc3ccccc3C(F)(F)F)c2=O)CC1` [compound 1, 7-(1-(2-Fluoro-6-methylphenyl)piperidin-4-yl)-5-(2-(trifluoromethyl)benzyl)pyrido[2,3-b]pyrazin-6(5H)-one], the IC50 was less than 500 nM.
Turning to `Cc1cnc2cc(C3CCN(c4c(C)cccc4F)CC3)c(=O)n(Cc3ccccc3OC(F)F)c2n1` [compound 74, 5-(2-(Difluoromethoxy)benzyl)-7-(1-(2-fluoro-6-methylphenyl)piperidin-4-yl)-3-methylpyrido[2,3-b]pyrazin-6(5H)-one], the 50% inhibitory concentration (IC50) lay in the range of 500 to 5000 nM.
For the molecule `Cc1cnc2c(C)c(C3CCN(c4c(C)cccc4F)CC3)c(=O)n(Cc3ncccc3C(F)(F)F)c2n1` [compound 75, 7-(1-(2-Fluoro-6-methylphenyl)piperidin-4-yl)-3,8-dimethyl-5-((3-(trifluoromethyl)pyridin-2-yl)methyl)pyrido[2,3-b]pyrazin-6(5H)-one], the IC50 lay within 500 to 5000 nM.
Turning to `COc1cnc2cc(C3CCN(c4c(C)cccc4F)CC3)c(=O)n(Cc3nccnc3C(F)(F)F)c2n1` [compound 76, 7-(1-(2-Fluoro-6-methylphenyl)piperidin-4-yl)-3-methoxy-5-((3-(trifluoromethyl)pyrazin-2-yl)methyl)pyrido[2,3-b]pyrazin-6(5H)-one], the IC50 is 500 to 5000 nM.
With `Cc1c(C2CCN(c3ccccc3C(F)(F)F)CC2)c(=O)n(Cc2nccnc2F)c2nccnc12` [compound 77, 5-((3-Fluoropyrazin-2-yl)methyl)-8-methyl-7-(1-(2-(trifluoromethyl)phenyl)piperidin-4-yl)pyrido[2,3-b]pyrazin-6(5H)-one], the concentration for half-maximal inhibition (IC50) was 500 to 5000 nM.
For the molecule `Cc1cnc2cc(C3CCN(c4c(C)cccc4F)CC3)c(=O)n(Cc3ccccc3OC(F)(F)F)c2n1` [compound 78, 7-(1-(2-Fluoro-6-methylphenyl)piperidin-4-yl)-3-methyl-5-(2-(trifluoromethoxy)benzyl)pyrido[2,3-b]pyrazin-6(5H)-one], the IC50 was 500 to 5000 nM.
With `COc1ccnc(F)c1N1CCC(c2cc3nccnc3n(Cc3ncccc3C(F)(F)F)c2=O)CC1` [compound 79, 7-(1-(2-Fluoro-4-methoxypyridin-3-yl)piperidin-4-yl)-5-((3-(trifluoromethyl)pyridin-2-yl)methyl)pyrido[2,3-b]pyrazin-6(5H)-one], the half-inhibitory concentration (IC50) is 500 to 5000 nM.
Regarding `COc1ccnc(F)c1N1CCC(c2cc3ncc(C)nc3n(Cc3nccnc3C(F)(F)F)c2=O)CC1` [compound 80, 7-(1-(2-Fluoro-4-methoxypyridin-3-yl)piperidin-4-yl)-3-methyl-5-((3-(trifluoromethyl)pyrazin-2-yl)methyl)pyrido[2,3-b]pyrazin-6(5H)-one], the half-maximal inhibitory concentration (IC50) lay within 500 to 5000 nM.
In the case of `Cc1ncc2cc(C3CCN(c4c(C)cccc4F)CC3)c(=O)n(Cc3ncccc3C(F)(F)F)c2n1` [compound 81, 6-(1-(2-fluoro-6-methylphenyl)piperidin-4-yl)-2-methyl-8-((3-(trifluoromethyl)pyridin-2-yl)methyl)pyrido[2,3-d]pyrimidin-7(8H)-one], the half-maximal inhibitory concentration (IC50) is less than 500 nM.
For the molecule `Cc1cccc(F)c1N1CCC(c2cc3ncncc3n(Cc3nccnc3C(F)(F)F)c2=O)CC1` [compound 82, 7-(1-(2-Fluoro-6-methylphenyl)piperidin-4-yl)-5-((3-(trifluoromethyl)pyrazin-2-yl)methyl)pyrido[3,2-d]pyrimidin-6(5H)-one], the IC50 was more than 100000 nM.
For `Cc1c(C2CCN(c3ccccc3C(F)(F)F)CC2)c(=O)n(Cc2ncccc2F)c2nccnc12` [compound 83, 5-((3-Fluoropyridin-2-yl)methyl)-8-methyl-7-(1-(2-(trifluoromethyl)phenyl)piperidin-4-yl)pyrido[2,3-b]pyrazin-6(5H)-one], the IC50 is less than 500 nM.
Take `Cc1cccc(F)c1N1CCC(c2cc3ncncc3n(Cc3ncccc3C(F)(F)F)c2=O)CC1` [compound 84, 7-(1-(2-Fluoro-6-methylphenyl)piperidin-4-yl)-5-((3-(trifluoromethyl)pyridin-2-yl)methyl)pyrido[3,2-d]pyrimidin-6(5H)-one]: the concentration for half-maximal inhibition (IC50) is more than 100000 nM.
As for `COc1ccnc(F)c1N1CCC(c2cc3ncc(C)nc3n(Cc3ncccc3C(F)(F)F)c2=O)CC1` [compound 85, 7-(1-(2-Fluoro-4-methoxypyridin-3-yl)piperidin-4-yl)-3-methyl-5-((3-(trifluoromethyl)pyridin-2-yl)methyl)pyrido[2,3-b]pyrazin-6(5H)-one], the figure is less than 500 nM; as for `Cc1cnc2cc(C3CCN(c4c(C)cccc4F)CC3)c(=O)n(Cc3ncccc3C(F)(F)F)c2c1` [compound 90, 3-(1-(2-Fluoro-6-methylphenyl)piperidin-4-yl)-7-methyl-1-((3-(trifluoromethyl)pyridin-2-yl)methyl)-1,5-naphthyridin-2(1H)-one], 5000 to 100000 nM.
Regarding `Cc1cccc(F)c1C1CCN(c2cc3nccnc3n(Cc3ncccc3C(F)(F)F)c2=O)CC1` [compound 91, 7-(4-(2-fluoro-6-methylphenyl)piperidin-1-yl)-5-((3-(trifluoromethyl)pyridin-2-yl)methyl) pyrido[2,3-b]pyrazin-6(5H)-one], the IC50 was 500 to 5000 nM.
As for `Cc1cnc2cc(N3CCN(c4c(C)cccc4F)CC3)c(=O)n(Cc3nccnc3C(F)(F)F)c2n1` [compound 92, 7-(4-(2-Fluoro-6-methylphenyl)piperazin-1-yl)-3-methyl-5-((3-(trifluoromethyl)pyrazin-2-yl)methyl)pyrido[2,3-b]pyrazin-6(5H)-one], the IC50 was less than 500 nM.
Turning to `COc1ncnc2cc(C3CCN(c4c(C)cccc4F)CC3)c(=O)n(Cc3nccnc3C(F)(F)F)c12` [compound 93, 7-(1-(2-Fluoro-6-methylphenyl)piperidin-4-yl)-4-methoxy-5-((3-(trifluoromethyl)pyrazin-2-yl)methyl)pyrido[3,2-d]pyrimidin-6(5H)-one], the IC50 was more than 100000 nM.
The same measure for `Cc1ccc2cc(C3CCN(c4c(C)cccc4F)CC3)c(=O)n(Cc3ncccc3C(F)(F)F)c2n1` [compound 94, 3-(1-(2-Fluoro-6-methylphenyl)piperidin-4-yl)-7-methyl-1-((3-(trifluoromethyl)pyridin-2-yl)methyl)-1,8-naphthyridin-2(1H)-one]: less than 500 nM; for `Cc1cnc2cc(N3CCC(c4c(C)cccc4F)CC3)c(=O)n(Cc3nccnc3C(F)(F)F)c2n1` [compound 95, 7-(4-(2-Fluoro-6-methylphenyl)piperidin-1-yl)-3-methyl-5-((3-(trifluoromethyl)pyrazin-2-yl)methyl)pyrido[2,3-b]pyrazin-6(5H)-one]: 500 to 5000 nM; for `Cc1cccc(F)c1N1CCN(c2cc3nccnc3n(Cc3ncccc3C(F)(F)F)c2=O)CC1` [compound 96, 7-(4-(2-Fluoro-6-methylphenyl)piperazin-1-yl)-5-((3-(trifluoromethyl)pyridin-2-yl)methyl)pyrido[2,3-b]pyrazin-6(5H)-one]: less than 500 nM.
With `Cc1cccc(F)c1N1CCN(c2c(C)c3nccnc3n(Cc3nccnc3C(F)(F)F)c2=O)CC1` [compound 97, 7-(4-(2-Fluoro-6-methylphenyl)piperazin-1-yl)-8-methyl-5-((3-(trifluoromethyl)pyrazin-2-yl)methyl)pyrido[2,3-b]pyrazin-6(5H)-one], the half-maximal inhibitory concentration (IC50) fell in the range of 500 to 5000 nM.
With `Cc1cccc(F)c1N1CCC(c2cc3nccnc3n(Cc3ncccc3OC(F)F)c2=O)CC1` [compound 98, 5-((3-(Difluoromethoxy)pyridin-2-yl)methyl)-7-(1-(2-fluoro-6-methylphenyl)piperidin-4-yl)pyrido[2,3-b]pyrazin-6(5H)-one], the IC50 was less than 500 nM.
